Assay type in all cases: in vivo
Test [1] has as its system Kochia scoparia (KCHSC). As to the kind of experiment: Herbicidal post-emergence action, section B (Table B4). The note with it: visual rating about 3 weeks after treatment vs untreated controls. The method, boiled down: (§1)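 Potted weeds in sandy loam are treated post-emergence at the one-leaf stage, 2 to 3 weeks after sowing. The spray is an aqueous WP or EC preparation with 0.5% additive at 600 liters per hectare. Percent activity is assessed by eye after about 3 weeks versus untreated controls.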

The subject of test [2] is Digitaria sanguinalis (DIGSA). As to the kind of experiment: Herbicidal pre-emergence action, section A (Table A12). The note with it: application rate 320 g/ha. Put shortly:
(§2)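 Compounds are applied pre-emergence to the soil covering freshly sown seeds in sandy loam, as WP or EC in water with 0.5% additive at a spray volume of 600 l/ha. Plants grow in the greenhouse, and percent damage is rated visually after roughly 3 weeks relative to untreated controls.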

The test system of test [3] is Lolium rigidum (LOLRI). Briefly: Herbicidal post-emergence action, section B (Table B5). The conditions noted are these: application rate 1280 g/ha, visual rating about 3 weeks after treatment vs untreated controls. The procedure: (§3) Seeds of mono- and dicotyledonous weed plants were placed in plastic pots in sandy loam soil (doubly sown with in each case one species of mono- or dicotyledonous weed plants per pot), covered with soil and cultivated in a greenhouse under controlled growth conditions. 2 to 3 weeks after sowing, the test plants were treated at the one-leaf stage. The compounds of the invention, formulated in the form of wettable powders (WP) or as emulsion concentrates (EC), were applied onto the green parts of the plants as aqueous suspension or emulsion with addition of 0.5% additive at a water application rate of 600 liters per hectare (converted). After the test plants had been kept in the greenhouse under optimum growth conditions for about 3 weeks, the activity of the preparations was rated visually in comparison to untreated controls. For example, 100% activity=the plants have died, 0% activity=like control plants.

The test system of test [4] is Amaranthus retroflexus (AMARE). As to the kind of experiment: Herbicidal post-emergence action, section B (Table B11). The conditions noted are these: visual rating about 3 weeks after treatment vs untreated controls. The method, boiled down: as §1
Test [5] relates to Digitaria sanguinalis (DIGSA). Briefly: Herbicidal post-emergence action, section B (Table B12). The note with it: Digitaria sanguinalis, post-emergence, 504 h; application rate 1280 g/ha; visual rating about 3 weeks after treatment vs untreated controls; read-out: post-emergence activity against DIGSA in %. The procedure:
as §3

Test [6] relates to Matricaria inodora (MATIN). As to the kind of experiment: Herbicidal pre-emergence action, section A (Table A6). The conditions noted are these: visual grading after ca. 3 weeks vs untreated controls. The method, boiled down:
as §2

The subject of test [7] is Veronica persica (VERPE). As to the kind of experiment: Herbicidal post-emergence action, section B (Table B10). The note with it: Veronica persica, post-emergence, 504 h; application rate 320 g/ha; visual rating about 3 weeks after treatment vs untreated controls; read-out: post-emergence activity against VERPE in %. The method, boiled down:
as §1

Test [8] relates to Poa annua (POAAN). Briefly: Herbicidal pre-emergence action, section A (Table A7). The note with it: visual grading after ca. 3 weeks vs untreated controls; for pre-emergence activity against POAAN in %: application rate 320 g/ha. The method, boiled down: as §2
Test [9] has as its system Lolium rigidum (LOLRI). Briefly: Herbicidal pre-emergence action, section A (Table A5). The conditions noted are these: visual grading after ca. 3 weeks vs untreated controls. Put shortly:
as §2

Test [10] has as its system Stellaria media (STEME). As to the kind of experiment: Herbicidal post-emergence action, section B (Table B9). The conditions noted are these: application rate 320 g/ha, visual rating about 3 weeks after treatment vs untreated controls. Put shortly:
as §1

Test [11] has as its system Kochia scoparia (KCHSC). As to the kind of experiment: Herbicidal pre-emergence action, section A (Table A4). The conditions noted are these: visual grading after ca. 3 weeks vs untreated controls. The method, boiled down:
as §2

Test [12] concerns Echinochloa crus-galli (ECHCG). Briefly: Herbicidal post-emergence action, section B (Table B3). The conditions noted are these: application rate 1280 g/ha, rated visually after about 3 weeks. The method, boiled down:
as §1

Test [13] deals with Poa annua (POAAN). Briefly: Herbicidal post-emergence action, section B (Table B7). The conditions noted are these: visual rating about 3 weeks after treatment vs untreated controls. Put shortly:
as §1

In test [14] the test system is Amaranthus retroflexus (AMARE). Briefly: Herbicidal pre-emergence action, section A (Table A11). The note with it: for pre-emergence activity against AMARE in %: application rate 320 g/ha. Put shortly:
as §2

Test [15] concerns Setaria viridis (SETVI). As to the kind of experiment: Herbicidal pre-emergence action, section A (Table A8). The conditions noted are these: application rate 1280 g/ha. Put shortly:
as §2

In test [16] the test system is Setaria viridis (SETVI). Briefly: Herbicidal post-emergence action, section B (Table B8). The conditions noted are these: application rate 1280 g/ha, visual rating about 3 weeks after treatment vs untreated controls. The method, boiled down:
as §1

The subject of test [17] is Echinochloa crus-galli (ECHCG). Briefly: Herbicidal pre-emergence action, section A (Table A3). The conditions noted are these: visual grading after ca. 3 weeks vs untreated controls. The method, boiled down: as §2
In test [18] the test system is Abutilon theophrasti (ABUTH). Briefly: Herbicidal post-emergence action, section B (Table B1). The conditions noted are these: rated visually after about 3 weeks. The method, boiled down:
as §1

In test [19] the test system is Alopecurus myosuroides (ALOMY). As to the kind of experiment: Herbicidal pre-emergence action, section A (Table A2). The note with it: application rate 1280 g/ha; visual grading after ca. 3 weeks vs untreated controls. The method, boiled down:
as §2

In test [20] the test system is Matricaria inodora (MATIN). Briefly: Herbicidal post-emergence action, section B (Table B6). The note with it: application rate 1280 g/ha; visual rating about 3 weeks after treatment vs untreated controls. The procedure:
as §3

The subject of test [21] is Abutilon theophrasti (ABUTH). As to the kind of experiment: Herbicidal pre-emergence action, section A (Table A1). The note with it: visual grading after ca. 3 weeks vs untreated controls. The source says: Seeds of mono- and dicotyledonous weed plants were sown in plastic pots (double sowings with one species of mono- and one species of dicotyledonous weed plants per pot), in sandy loam, and covered with soil. The compounds according to the invention, formulated in the form of wettable powders (WP) or as emulsifiable concentrates (EC), were applied to the surface of the covering soil as aqueous suspension or emulsion, with the addition of 0.5% of an additive, at an application rate of 600 l of water per hectare (converted). Following treatment, the pots were placed in a greenhouse and kept under optimum growth conditions for the test plants. The visual grading of the damage to the test plants was carried out after ca. 3 weeks in comparison to untreated controls (herbicidal effect in percent (%): 100% effect=plants have died off, 0% effect=as control plants).

Test [22] deals with Veronica persica (VERPE). As to the kind of experiment: Herbicidal pre-emergence action, section A (Table A10). The note with it: application rate 1280 g/ha. Put shortly: as §2
Test [23] relates to Stellaria media (STEME). As to the kind of experiment: Herbicidal pre-emergence action, section A (Table A9). The conditions noted are these: application rate 320 g/ha. Put shortly:
as §2

`NB1OB(N2CSc3cc(Br)c(-c4ccccc4Cl)nc32)O1` [Example I-048, 4-[6-bromo-5-(2-chlorophenyl)-2,3-dihydro[1,3]thiazolo[4,5-b]pyridin-3(2H)-yl]-1,3,2,4-dioxa-diboretan-2-amine]: the pest or weed control at 320 g/ha is 90% with Kochia scoparia (KCHSC) [1] (Bassia scoparia, post-emergence, 504 h, application rate 320 g/ha, read-out: post-emergence activity against KCHSC in %); 100% in [2] (Digitaria sanguinalis, 504 h, read-out: pre-emergence activity against DIGSA in %); 90% in test [4] (Amaranthus retroflexus, post-emergence, 504 h, application rate 320 g/ha, read-out: post-emergence activity against AMARE in %); 90% in the test on Veronica persica (VERPE) [7]; 90% in the test with Stellaria media (STEME) [10] (Stellaria media, post-emergence, 504 h, read-out: post-emergence activity against STEME in %); 90% in the test with Poa annua (POAAN) [13] (Poa annua, post-emergence, 504 h, application rate 320 g/ha, read-out: post-emergence activity against POAAN in %). For the same molecule, the pest or weed control at 320 g/ha in test [17] (Echinochloa crus-galli, pre-emergence, 504 h, application rate 320 g/ha, read-out: pre-emergence activity against ECHCG in %) came out at 100%. Moreover, the pest or weed control at 1280 g/ha came to 90% in the test on Lolium rigidum (LOLRI) [3] (Lolium rigidum, post-emergence, 504 h, read-out: post-emergence activity against LOLRI in %); 90% in test [5]; 90% in [6] (Tripleurospermum inodorum, pre-emergence, 504 h, application rate 1280 g/ha, read-out: pre-emergence activity against MATIN in %); 100% in the test on Poa annua (POAAN) [8] (Poa annua, pre-emergence, 504 h, application rate 1280 g/ha, read-out: pre-emergence activity against POAAN in %); 100% in the test on Lolium rigidum (LOLRI) [9] (Lolium rigidum, pre-emergence, 504 h, application rate 1280 g/ha, read-out: pre-emergence activity against LOLRI in %); 90% with Kochia scoparia (KCHSC) [11] (Bassia scoparia, pre-emergence, 504 h, application rate 1280 g/ha, read-out: pre-emergence activity against KCHSC in %). In addition, the pest or weed control at 1280 g/ha in [12] (Echinochloa crus-galli, 504 h, read-out: post-emergence activity against ECHCG in %) came out at 90%; in [14] (Amaranthus retroflexus, 504 h, application rate 1280 g/ha, read-out: pre-emergence activity against AMARE in %), 90%; with Setaria viridis (SETVI) [15] (Setaria viridis, 504 h, read-out: pre-emergence activity against SETVI in %), 100%; in the test with Setaria viridis (SETVI) [16] (Setaria viridis, post-emergence, 504 h, read-out: post-emergence activity against SETVI in %), 90%; in test [18] (Abutilon theophrasti, 504 h, application rate 1280 g/ha, read-out: post-emergence activity against ABUTH in %) it was 90%.
With `COC(=O)CS(=O)(=O)N1CSc2cc(C)c(-c3ccccc3F)nc21` [Example I-121], the “pre-emergence activity against DIGSA in %” value in test [2] is 100%. For the same molecule, the “pre-emergence activity against ALOMY in %” value in test [19] was 90%. Moreover, in test [6] (application rate 320 g/ha), the “pre-emergence activity against MATIN in %” value was determined as 90%. Moreover, the “pre-emergence activity against POAAN in %” value in the test with Poa annua (POAAN) [8] worked out at 100%. Moreover, the “pre-emergence activity against LOLRI in %” value in the test on Lolium rigidum (LOLRI) [9] (application rate 320 g/ha) is listed as 100%. Besides, the “pre-emergence activity against KCHSC in %” value in the test on Kochia scoparia (KCHSC) [11] (application rate 320 g/ha) was 90%. Besides, the “post-emergence activity against MATIN in %” value in [20] was 90%. In addition, in test [12], the “post-emergence activity against ECHCG in %” value was 90%. In addition, the “post-emergence activity against POAAN in %” value in the test with Poa annua (POAAN) [13] (application rate 320 g/ha) came to 90%. The “pre-emergence activity against ABUTH in %” value in [21] (application rate 1280 g/ha) is on record as 90%. Besides, the “pre-emergence activity against AMARE in %” value in test [14] amounted to 90%. Moreover, the “pre-emergence activity against SETVI in %” value in the test with Setaria viridis (SETVI) [15] was determined as 100%. For the same molecule, the “pre-emergence activity against VERPE in %” value in the test with Veronica persica (VERPE) [22] is 90%. Besides, the “post-emergence activity against SETVI in %” value with Setaria viridis (SETVI) [16] was 90%. Besides, the “pre-emergence activity against ECHCG in %” value in test [17] (application rate 320 g/ha) was 100%. The “pre-emergence activity against STEME in %” value in the test on Stellaria media (STEME) [23] turned out to be 90%.
With `Cc1cc2c(nc1-c1cccc(F)c1F)N(C(=O)C1(C)CC(Cl)=NO1)CS2` (centres unmarked) [Example I-152], the “post-emergence activity against KCHSC in %” value in the test with Kochia scoparia (KCHSC) [1] (application rate 1280 g/ha) is 90%. The “pre-emergence activity against DIGSA in %” value in test [2] came to 90%. The “pre-emergence activity against ALOMY in %” value in test [19] is 90%. Further, the “post-emergence activity against LOLRI in %” value in the test on Lolium rigidum (LOLRI) [3] was found to be 90%. In test [4] (application rate 1280 g/ha), the “post-emergence activity against AMARE in %” value stood at 100%. Further, the “pre-emergence activity against MATIN in %” value in test [6] (application rate 1280 g/ha) worked out at 90%. The “pre-emergence activity against POAAN in %” value in the test on Poa annua (POAAN) [8] is on record as 100%. Besides, the “pre-emergence activity against LOLRI in %” value in the test on Lolium rigidum (LOLRI) [9] (application rate 1280 g/ha) turned out to be 100%. Also, the “post-emergence activity against STEME in %” value in the test with Stellaria media (STEME) [10] worked out at 90%. Further, the “pre-emergence activity against KCHSC in %” value in the test with Kochia scoparia (KCHSC) [11] (application rate 1280 g/ha) came to 100%. Also, the “post-emergence activity against POAAN in %” value in the test with Poa annua (POAAN) [13] (application rate 1280 g/ha) is listed as 90%. For the same molecule, in test [21] (application rate 320 g/ha), the “pre-emergence activity against ABUTH in %” value was determined as 90%. The “pre-emergence activity against AMARE in %” value in test [14] is 100%. In addition, the “pre-emergence activity against SETVI in %” value in the test on Setaria viridis (SETVI) [15] was determined as 100%. The “pre-emergence activity against VERPE in %” value in the test on Veronica persica (VERPE) [22] was determined as 90%. Besides, the “post-emergence activity against SETVI in %” value in the test with Setaria viridis (SETVI) [16] is listed as 90%. The “pre-emergence activity against ECHCG in %” value in [17] (application rate 1280 g/ha) is on record as 90%. The “pre-emergence activity against STEME in %” value with Stellaria media (STEME) [23] was determined as 90%. Also, the “post-emergence activity against ABUTH in %” value in [18] (application rate 320 g/ha) was 90%.
